Assay results from ChEMBL document CHEMBL1201862, “PubChem BioAssay data set” (2004).
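Cultured in 96-well plates, cells were exposed to test compound for 48 hours across five concentrations. At the GI50, growth is halved.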 Activity calls are given as the source filed them. No stated cut-off is given here; in the data, active = GI50 up to about 1.1 µM and inactive = higher.

Experiments:
Test in all cases: NCI tumour cell line growth inhibition, 48 h
[1] = test system: SK-MEL-2
[2] = test system: EKVX
[3] = test system: HOP-62
[4] = test system: Hs-578T
[5] = test system: LOX IMVI
[6] = test system: 786-0
[7] = test system: NCI-H460
[8] = test system: BT-549
[9] = test system: OVCAR-4
[10] = test system: UO-31
[11] = test system: OVCAR-3
[12] = test system: CAKI-1
[13] = test system: M14
[14] = test system: SN12C
[15] = test system: MCF7
[16] = test system: K562
[17] = test system: IGROV-1
[18] = test system: HCC 2998
[19] = test system: Malme-3M
[20] = test system: RXF 393

Measured: GI50

CC(C)(C)C(=O)c1c(O)c2ccccc2c2ccccc2c1=O
inactive: [1] > 100 µM | [2] > 100 µM | [3] 82.2 µM | [4] 85.7 µM | [5] 47.8 µM | [6] > 100 µM | [7] > 100 µM | [8] 32.4 µM | [9] 62.1 µM | [10] 33.2 µM | [11] 59.2 µM | [12] > 100 µM | [13] 95.3 µM | [14] > 100 µM | [15] > 100 µM

CC1CC(C(=O)OC2OC(COC3OC(CO)C(OC4OC(C)C(O)C(O)C4O)C(O)C3O)C(O)C(O)C2O)C2CCC3(C)C(=CCC4(C)C3CCC3C(C)(CO)C(O)C(O)CC34C)C2C1C (stereo unspecified)
inactive: [1] 18.9 µM | [2] > 10 µM | [3] 17.7 µM | [4] 17.7 µM | [16] 34.3 µM | [5] 21.7 µM | [6] 21 µM | [17] 16.9 µM | [7] 20.7 µM | [18] 21.8 µM | [8] 17.7 µM | [9] 15.1 µM | [10] > 100 µM | [11] 23.3 µM | [12] > 100 µM | [13] 35.7 µM | [14] 20.7 µM | [15] 23.7 µM

CC1=NNC(=O)C1C1CC(c2c[nH]c3ccccc23)=NNC1=S (stereo unspecified)
inactive: [1] > 100 µM | [2] 28.4 µM | [3] > 100 µM | [4] > 100 µM | [16] 48.5 µM | [6] > 100 µM | [7] 68.5 µM | [19] > 100 µM | [8] 50.2 µM | [10] 30.6 µM | [11] > 100 µM | [20] > 100 µM | [12] > 100 µM | [13] > 100 µM | [14] > 100 µM

CC(C)CC(=O)NC(Nc1ccc(S(=O)(=O)Nc2ncccn2)cc1)(C(F)(F)F)C(F)(F)F
inactive: [1] > 100 µM | [2] > 100 µM | [3] > 100 µM | [4] > 100 µM | [16] > 100 µM | [5] > 100 µM | [6] > 100 µM | [17] > 100 µM | [7] > 100 µM | [18] > 100 µM | [19] > 100 µM | [8] > 100 µM | [9] > 100 µM | [10] > 100 µM | [11] > 100 µM | [20] 20.4 µM | [12] > 100 µM | [13] > 100 µM | [14] > 100 µM

O=S(=O)(N/C(=N\O)Nc1ccc(Cl)cc1)c1cc2ccccc2o1
inactive: [1] 16.6 µM | [2] 18.6 µM | [3] 23.6 µM | [4] 20.4 µM | [16] 11.1 µM | [5] 11.5 µM | [6] 20.7 µM | [17] 12.6 µM | [7] 38.7 µM | [19] 19.9 µM | [8] 17.9 µM | [9] 17.9 µM | [10] 46.7 µM | [11] 13.1 µM | [20] 34.8 µM | [12] 10.6 µM | [13] 21.2 µM | [14] 18.1 µM

OCc1ccc2c(c1)CC1(Cc3ccc(/C=N/O)cc3C1)C2 (stereo unspecified)
inactive: [1] 7.26 µM | [2] 6.73 µM | [3] 5.45 µM | [4] 2.45 µM | [16] 1.8 µM | [5] 2.93 µM | [6] 10.4 µM | [17] 2.84 µM | [7] 3.3 µM | [18] 1.97 µM | [19] 9.1 µM | [8] 10.4 µM | [9] 1.92 µM | [10] 7.08 µM | [11] 2.74 µM | [12] 7.8 µM | [13] 1.99 µM | [14] 2.61 µM | [15] 2 µM

O=c1cnn(C2OC(CO)C(O)C(F)C2O)c(=O)[nH]1 (stereo unspecified)
inactive: [1] > 100 µM | [2] > 100 µM | [4] > 100 µM | [16] > 100 µM | [5] > 100 µM | [6] > 100 µM | [17] > 100 µM | [7] > 100 µM | [18] > 100 µM | [19] > 100 µM | [8] > 100 µM | [9] > 100 µM | [10] > 100 µM | [11] > 100 µM | [12] > 100 µM | [13] > 100 µM | [14] > 100 µM | [15] > 100 µM

CN(C)CCCNC(=O)c1cc(NC(=O)c2cc(NS(=O)(=O)c3ccc4c(c3)C(=O)c3ccccc3C4=O)cn2C)cn1C
inactive: [1] > 100 µM | [2] > 100 µM | [3] > 100 µM | [16] 52.6 µM | [5] 55.3 µM | [6] > 100 µM | [17] > 100 µM | [7] 45 µM | [18] > 100 µM | [19] 28.4 µM | [8] 52.7 µM | [9] > 100 µM | [10] > 100 µM | [11] 95.5 µM | [20] > 100 µM | [12] > 100 µM | [13] > 100 µM | [14] > 100 µM | [15] 31.8 µM

COC(=O)c1c2c(cc3c1CC1(Cc4cc5c(c(C=O)c4C1)CCC5)C3)CCC2 (stereo unspecified)
inactive: [1] 23.8 µM | [2] 62.1 µM | [3] 51.9 µM | [4] 92.7 µM | [16] 13.4 µM | [5] 22.5 µM | [6] 29.4 µM | [17] 28.4 µM | [7] 45 µM | [18] 24.7 µM | [19] 22.9 µM | [9] > 100 µM | [10] 25.1 µM | [11] 23.3 µM | [20] 30.7 µM | [12] > 100 µM | [13] 22.2 µM | [15] 42 µM

CC(=O)/C(=C\c1ccc(Cl)c(Cl)c1)C(=O)C(C)CN(C)C (stereo unspecified)
inactive: [2] 14.2 µM | [3] 19.1 µM | [5] 2.21 µM | [6] 2.39 µM | [17] 2.07 µM | [7] 12.5 µM | [18] 2.39 µM | [19] 8.15 µM | [8] 2.26 µM | [10] 4.01 µM | [11] 4.1 µM | [12] 4.48 µM | [13] 9.75 µM | [14] 6.73 µM | [15] 3.61 µM

CC1CC(NN)=Nc2ccccc2N1 (stereo unspecified)
inactive: [1] > 100 µM | [2] > 100 µM | [3] > 100 µM | [4] > 100 µM | [16] 49.2 µM | [6] > 100 µM | [17] > 100 µM | [7] > 100 µM | [19] 16.6 µM | [8] > 100 µM | [9] > 100 µM | [10] > 100 µM | [11] > 100 µM | [12] > 100 µM | [13] > 100 µM | [14] > 100 µM

Cc1ccc(/C(=C\C(=O)C(=O)NC23CC4CC(CC(C4)C2)C3)Sc2ccccc2)cc1
inactive: [1] > 10 µM | [2] > 10 µM | [3] > 10 µM | [4] > 10 µM | [16] 4.76 µM | [5] > 10 µM | [6] > 10 µM | [17] > 10 µM | [7] > 10 µM | [18] > 10 µM | [19] > 10 µM | [9] 6.43 µM | [10] > 10 µM | [11] > 10 µM | [20] > 10 µM | [12] > 10 µM | [13] > 10 µM | [14] > 10 µM | [15] > 10 µM

O=S1(=O)N=C(SCc2c[nH]c3ccccc23)N(c2ccccc2)c2ccncc21
inactive: [1] > 100 µM | [2] > 100 µM | [3] > 100 µM | [4] > 100 µM | [16] > 100 µM | [5] 35.4 µM | [6] 25.1 µM | [7] > 100 µM | [18] > 100 µM | [19] > 100 µM | [8] 59 µM | [9] > 100 µM | [10] 18.5 µM | [11] > 100 µM | [12] 67.5 µM | [13] > 100 µM | [14] 74.6 µM | [15] 42.5 µM

COC(=O)C1=C(OC(=O)/C=C/c2ccc(Cl)cc2)C(C(=O)OC)[C@]2(O)[C@@H](C(=O)OC)[C@H]1C[C@@H](c1ccccc1)[C@@H]2C(=O)OC (stereo partly specified)
inactive: [1] 6.27 µM | [2] 3.85 µM | [3] > 57.4 µM | [4] 7.71 µM | [16] 4.54 µM | [5] 7.19 µM | [6] 4.92 µM | [17] 3.18 µM | [7] 4.15 µM | [18] 7.83 µM | [19] 4.94 µM | [8] 6.55 µM | [9] 5.19 µM | [10] 7.08 µM | [11] 7.5 µM | [20] 9.29 µM | [12] 11.1 µM | [13] 6.1 µM | [14] 7.36 µM

Cc1nc(Nc2ccc(Cl)cc2Cl)sc1C(=O)Nc1ccccc1
inactive: [1] 39.8 µM | [2] 84.7 µM | [3] 81.1 µM | [4] 47 µM | [16] 24 µM | [5] 23.4 µM | [6] 53.6 µM | [17] 63.4 µM | [7] 37.9 µM | [18] 72.1 µM | [19] > 100 µM | [9] 73.6 µM | [10] 29.6 µM | [11] 97.1 µM | [20] 33.3 µM | [12] 49.8 µM | [13] 80.9 µM | [14] > 100 µM | [15] 36 µM

Cc1cc(C)c(C(=O)c2nnc3ccccc3c2N)c(C)c1
inactive: [1] 14.9 µM | [3] 13.6 µM | [4] 24 µM | [5] 16 µM | [6] 12.3 µM | [17] 15.3 µM | [8] 63.1 µM | [11] 16.3 µM | [12] 19.3 µM | [13] 13.9 µM | [14] 15.3 µM
